Experimental data published in patent US9156845B2, “4-(substituted amino)-7H-pyrrolo[2,3-d] pyrimidines as LRRK2 inhibitors” (Pfizer Inc., priority 2012, dated 2015).
Where two headings read alike, the source gives them in different places.

What was measured:
Assay in all cases: ActivX kinase probe assay (human PBMC)
Assay type in all cases: binding
Wnk1, Wnk2, Wnk4 = system: Wnk1, Wnk2, Wnk4
RIPK3 = RIPK3 (Homo sapiens (Human), UniProt Q9Y572); conditions: read-out: percent inhibition
IRAK4 = IRAK4 (Homo sapiens (Human), UniProt Q9NWZ3); conditions: read-out: percent inhibition
ILK = ILK (Homo sapiens (Human), UniProt Q13418); conditions: read-out: percent inhibition
SRC = SRC (Homo sapiens (Human), UniProt P12931); conditions: read-out: percent inhibition
NEK1 = NEK1 (Homo sapiens (Human), UniProt Q96PY6); conditions: read-out: percent inhibition
SMG1 = SMG1 (Homo sapiens (Human), UniProt Q96Q15); conditions: read-out: percent inhibition
TBK1 = TBK1 (Homo sapiens (Human), UniProt Q9UHD2); conditions: read-out: percent inhibition
Chain of TBK1 (Q9UHD2 whole entry): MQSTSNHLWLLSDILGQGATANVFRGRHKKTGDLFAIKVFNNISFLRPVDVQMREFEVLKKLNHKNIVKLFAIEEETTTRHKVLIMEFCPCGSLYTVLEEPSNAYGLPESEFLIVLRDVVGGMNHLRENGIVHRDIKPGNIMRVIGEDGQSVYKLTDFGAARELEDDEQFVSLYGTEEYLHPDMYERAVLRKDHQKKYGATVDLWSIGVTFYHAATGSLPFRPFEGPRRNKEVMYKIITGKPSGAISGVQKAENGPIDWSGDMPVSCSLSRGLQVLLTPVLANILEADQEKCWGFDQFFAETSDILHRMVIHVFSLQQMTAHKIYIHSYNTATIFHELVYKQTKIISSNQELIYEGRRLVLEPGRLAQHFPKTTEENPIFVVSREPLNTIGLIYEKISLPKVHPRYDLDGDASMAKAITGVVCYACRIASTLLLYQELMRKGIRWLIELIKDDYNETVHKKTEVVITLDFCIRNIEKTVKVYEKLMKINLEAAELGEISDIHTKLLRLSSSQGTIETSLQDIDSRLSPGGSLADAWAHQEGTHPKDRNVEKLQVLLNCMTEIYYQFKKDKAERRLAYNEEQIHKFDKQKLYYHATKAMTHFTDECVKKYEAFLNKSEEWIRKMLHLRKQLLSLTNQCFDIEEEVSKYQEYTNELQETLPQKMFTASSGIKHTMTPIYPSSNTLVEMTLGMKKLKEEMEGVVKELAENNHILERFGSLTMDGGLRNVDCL

TAO1, TAO3 = system: TAO1, TAO3
NEK7 = NEK7 (Homo sapiens (Human), UniProt Q8TDX7); conditions: read-out: percent inhibition
DNAPK = DNAPK (Homo sapiens (Human), UniProt P78527); conditions: read-out: percent inhibition
smMLCK = smMLCK (Homo sapiens (Human), UniProt Q15746); conditions: read-out: percent inhibition
Chain of smMLCK (Q15746 whole entry, the tested form may be a part): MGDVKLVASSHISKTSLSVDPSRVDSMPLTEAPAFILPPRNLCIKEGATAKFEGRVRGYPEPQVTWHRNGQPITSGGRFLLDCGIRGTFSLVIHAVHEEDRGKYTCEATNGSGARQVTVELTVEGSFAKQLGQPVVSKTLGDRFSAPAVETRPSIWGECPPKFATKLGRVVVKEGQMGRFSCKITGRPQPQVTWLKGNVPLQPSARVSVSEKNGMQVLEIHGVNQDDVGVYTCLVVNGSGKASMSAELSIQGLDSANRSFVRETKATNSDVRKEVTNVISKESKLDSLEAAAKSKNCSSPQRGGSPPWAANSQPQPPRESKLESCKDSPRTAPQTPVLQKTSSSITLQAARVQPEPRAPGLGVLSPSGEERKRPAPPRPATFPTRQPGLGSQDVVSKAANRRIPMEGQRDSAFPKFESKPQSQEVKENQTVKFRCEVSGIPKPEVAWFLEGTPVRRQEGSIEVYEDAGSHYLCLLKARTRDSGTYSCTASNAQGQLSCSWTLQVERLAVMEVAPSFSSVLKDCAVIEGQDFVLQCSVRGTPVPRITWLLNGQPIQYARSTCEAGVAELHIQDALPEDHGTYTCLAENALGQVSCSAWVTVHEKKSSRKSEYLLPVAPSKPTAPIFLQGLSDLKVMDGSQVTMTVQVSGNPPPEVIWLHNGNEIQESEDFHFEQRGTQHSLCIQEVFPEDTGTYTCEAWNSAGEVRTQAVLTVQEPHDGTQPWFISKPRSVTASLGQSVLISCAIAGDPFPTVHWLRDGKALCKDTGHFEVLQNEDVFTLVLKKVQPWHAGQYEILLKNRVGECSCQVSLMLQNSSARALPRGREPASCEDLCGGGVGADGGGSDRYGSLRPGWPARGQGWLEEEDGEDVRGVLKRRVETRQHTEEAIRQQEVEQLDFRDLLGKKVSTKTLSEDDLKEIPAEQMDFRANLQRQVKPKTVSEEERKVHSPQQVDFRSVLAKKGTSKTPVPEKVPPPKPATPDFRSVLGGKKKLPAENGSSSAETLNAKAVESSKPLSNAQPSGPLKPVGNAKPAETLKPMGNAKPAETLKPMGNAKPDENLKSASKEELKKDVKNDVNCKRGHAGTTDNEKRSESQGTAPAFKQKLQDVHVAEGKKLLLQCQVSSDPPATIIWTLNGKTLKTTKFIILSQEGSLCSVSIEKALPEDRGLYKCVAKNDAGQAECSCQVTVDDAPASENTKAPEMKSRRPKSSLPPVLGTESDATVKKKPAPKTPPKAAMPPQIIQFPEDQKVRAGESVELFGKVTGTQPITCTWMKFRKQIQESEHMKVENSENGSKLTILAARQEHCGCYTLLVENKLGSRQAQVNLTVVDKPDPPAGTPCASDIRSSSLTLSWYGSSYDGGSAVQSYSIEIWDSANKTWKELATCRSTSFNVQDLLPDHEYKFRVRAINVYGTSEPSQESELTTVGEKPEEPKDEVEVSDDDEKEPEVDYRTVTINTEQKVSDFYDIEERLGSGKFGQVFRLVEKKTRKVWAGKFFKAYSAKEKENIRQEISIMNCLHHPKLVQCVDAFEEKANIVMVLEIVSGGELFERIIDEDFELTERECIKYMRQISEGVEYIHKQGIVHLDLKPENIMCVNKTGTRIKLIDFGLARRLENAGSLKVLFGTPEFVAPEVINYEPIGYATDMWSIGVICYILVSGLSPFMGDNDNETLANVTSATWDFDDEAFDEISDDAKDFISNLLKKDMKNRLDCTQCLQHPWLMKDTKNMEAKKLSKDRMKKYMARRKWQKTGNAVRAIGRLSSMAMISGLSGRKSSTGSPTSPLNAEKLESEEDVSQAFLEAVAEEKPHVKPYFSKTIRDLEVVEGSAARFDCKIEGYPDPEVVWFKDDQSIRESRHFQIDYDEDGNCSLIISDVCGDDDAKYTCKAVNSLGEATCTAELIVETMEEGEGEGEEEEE

RSK2 domain2 = RSK2 domain2 (Homo sapiens (Human), UniProt P51812); conditions: read-out: percent inhibition
MAP3K5 = MAP3K5 (Homo sapiens (Human), UniProt Q99683); conditions: read-out: percent inhibition
IKKb = IKKb (Homo sapiens (Human), UniProt O14920); conditions: read-out: percent inhibition
TLK1 = TLK1 (Homo sapiens (Human), UniProt Q9UKI8); conditions: read-out: percent inhibition
MST3 = MST3 (Homo sapiens (Human), UniProt Q9Y6E0); conditions: read-out: percent inhibition
RSK1 domain1 = RSK1 domain1 (Homo sapiens (Human), UniProt Q15418); conditions: read-out: percent inhibition
FRAP = FRAP (Homo sapiens (Human), UniProt P42345); conditions: read-out: percent inhibition
TLK2 = TLK2 (Homo sapiens (Human), UniProt Q86UE8); conditions: read-out: percent inhibition
NDR1 = NDR1 (Homo sapiens (Human), UniProt Q15208); conditions: read-out: percent inhibition
Chain of NDR1 (Q15208 whole entry): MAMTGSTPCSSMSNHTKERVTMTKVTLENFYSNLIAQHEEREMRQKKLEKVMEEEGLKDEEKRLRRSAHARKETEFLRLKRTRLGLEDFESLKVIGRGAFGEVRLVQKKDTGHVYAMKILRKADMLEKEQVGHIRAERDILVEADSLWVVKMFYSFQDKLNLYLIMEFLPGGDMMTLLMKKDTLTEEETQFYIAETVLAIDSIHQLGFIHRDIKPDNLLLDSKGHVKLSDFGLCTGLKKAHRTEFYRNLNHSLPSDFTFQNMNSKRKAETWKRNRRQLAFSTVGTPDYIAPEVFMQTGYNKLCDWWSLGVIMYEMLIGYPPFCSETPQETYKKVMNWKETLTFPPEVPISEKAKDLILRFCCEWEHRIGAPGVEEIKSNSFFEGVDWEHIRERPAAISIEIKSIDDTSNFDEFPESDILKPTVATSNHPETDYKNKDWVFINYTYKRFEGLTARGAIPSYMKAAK

SYK = SYK (Homo sapiens (Human), UniProt P43405); conditions: read-out: percent inhibition
MAP3K3 = MAP3K3 (Homo sapiens (Human), UniProt Q99759); conditions: read-out: percent inhibition
MAP2K4 = MAP2K4 (Homo sapiens (Human), UniProt P45985); conditions: read-out: percent inhibition
MARK2 = MARK2 (Homo sapiens (Human), UniProt Q7KZI7); conditions: read-out: percent inhibition
MLK3 = MLK3 (Homo sapiens (Human), UniProt Q16584); conditions: read-out: percent inhibition
CHK2 = CHK2 (Homo sapiens (Human), UniProt O96017); conditions: read-out: percent inhibition
PAN3 = PAN3 (Homo sapiens (Human), UniProt Q58A45); conditions: read-out: percent inhibition
Chain of PAN3 (Q58A45 whole entry): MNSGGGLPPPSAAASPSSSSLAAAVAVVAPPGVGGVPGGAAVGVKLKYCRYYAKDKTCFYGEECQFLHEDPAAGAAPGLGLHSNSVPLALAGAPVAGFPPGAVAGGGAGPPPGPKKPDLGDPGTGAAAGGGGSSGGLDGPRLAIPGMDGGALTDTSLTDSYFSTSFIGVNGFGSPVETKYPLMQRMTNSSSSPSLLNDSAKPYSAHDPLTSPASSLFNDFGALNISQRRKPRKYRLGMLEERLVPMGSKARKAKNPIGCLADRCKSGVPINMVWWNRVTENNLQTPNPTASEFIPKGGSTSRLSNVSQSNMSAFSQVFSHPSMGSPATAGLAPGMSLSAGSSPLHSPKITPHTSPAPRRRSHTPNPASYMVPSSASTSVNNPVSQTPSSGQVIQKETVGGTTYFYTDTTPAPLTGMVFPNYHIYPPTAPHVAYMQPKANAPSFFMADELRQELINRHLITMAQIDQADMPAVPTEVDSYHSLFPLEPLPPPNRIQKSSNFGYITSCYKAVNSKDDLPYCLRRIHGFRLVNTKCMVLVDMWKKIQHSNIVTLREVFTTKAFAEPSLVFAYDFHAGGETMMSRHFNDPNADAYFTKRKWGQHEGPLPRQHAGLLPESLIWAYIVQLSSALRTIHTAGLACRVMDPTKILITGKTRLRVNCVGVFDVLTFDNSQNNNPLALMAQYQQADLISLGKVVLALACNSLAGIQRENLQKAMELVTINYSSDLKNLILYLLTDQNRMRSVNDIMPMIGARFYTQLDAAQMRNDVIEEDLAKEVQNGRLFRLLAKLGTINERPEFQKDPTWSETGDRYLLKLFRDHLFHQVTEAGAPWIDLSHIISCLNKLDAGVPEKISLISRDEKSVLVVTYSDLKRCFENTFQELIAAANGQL

GPRK6 = GPRK6 (Homo sapiens (Human), UniProt P43250); conditions: read-out: percent inhibition
Chain of GPRK6 (P43250 whole entry): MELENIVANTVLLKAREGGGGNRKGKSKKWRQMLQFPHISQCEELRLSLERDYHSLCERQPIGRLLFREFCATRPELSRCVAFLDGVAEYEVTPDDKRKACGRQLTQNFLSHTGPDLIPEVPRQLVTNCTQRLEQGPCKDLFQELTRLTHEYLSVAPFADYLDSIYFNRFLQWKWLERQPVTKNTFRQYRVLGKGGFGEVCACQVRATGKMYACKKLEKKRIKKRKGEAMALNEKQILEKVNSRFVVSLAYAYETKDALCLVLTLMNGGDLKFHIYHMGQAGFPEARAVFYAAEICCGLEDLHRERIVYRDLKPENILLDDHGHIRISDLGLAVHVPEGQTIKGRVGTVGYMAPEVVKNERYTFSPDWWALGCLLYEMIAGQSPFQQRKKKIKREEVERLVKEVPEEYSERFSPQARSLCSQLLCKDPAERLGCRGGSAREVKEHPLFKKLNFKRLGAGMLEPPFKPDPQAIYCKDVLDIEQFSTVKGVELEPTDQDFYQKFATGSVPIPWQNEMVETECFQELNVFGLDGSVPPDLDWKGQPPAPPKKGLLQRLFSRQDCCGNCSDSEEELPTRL

PRPK = PRPK (Homo sapiens (Human), UniProt Q96S44); conditions: read-out: percent inhibition
Chain of PRPK (Q96S44 whole entry): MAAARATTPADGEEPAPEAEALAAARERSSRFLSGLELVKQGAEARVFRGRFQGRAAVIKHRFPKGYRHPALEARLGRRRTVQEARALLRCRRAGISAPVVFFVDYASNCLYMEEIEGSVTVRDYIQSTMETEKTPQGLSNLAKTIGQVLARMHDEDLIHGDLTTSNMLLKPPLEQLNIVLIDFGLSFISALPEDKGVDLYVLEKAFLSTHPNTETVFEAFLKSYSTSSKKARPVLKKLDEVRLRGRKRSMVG
Procedure: Certain of the compounds of the present invention were assessed for kinase selectivity using a commercially available ActiveX targeted kinase probe in which the tissue employed was human peripheral blood mononuclear cells (PBMC). The test compounds were provided to ActivX Biosciences, Inc., 11025 North Torrey Pines Road, Suite 120; LaJolla, Calif., USA 92037. The compounds were run in the ActivX proprietary kinase assay and results were obtained at compound test concentrations of 1 μM (columns 2, 4 and 6) and 0.1 μM (columns 3, 5 and 7). The results as percent inhibition obtained for the compounds of Examples 1, 4 and 217 are provided below in Table 3.

RSKL1 domain1 = RSKL1 domain1 (Homo sapiens (Human), UniProt Q96S38); conditions: read-out: percent inhibition
FES = FES (Homo sapiens (Human), UniProt P07332); conditions: read-out: percent inhibition

`N#Cc1cccc(-c2c[nH]c3ncnc(N4CCOCC4)c23)c1` [Example 4, 3-[4-(Morpholin-4-yl)-7H-pyrrolo[2,3-d]pyrimidin-5-yl]benzonitrile] showed a percent inhibition (Wnk1, Wnk2, Wnk4; 0.1 μM) of −1.9%, a percent inhibition (Wnk1, Wnk2, Wnk4; 1 μM) of −1.3% and an inhibition at 0.1 µM (RIPK3) of -3.2%. For the same compound, the inhibition at 1 µM (RIPK3) was 8%, the inhibition at 0.1 µM (IRAK4) was -12.8% and the inhibition at 1 µM (IRAK4) was 10.7%. The inhibition at 0.1 µM (ILK) was -8.9%, the inhibition at 1 µM (ILK) was -31.6% and the inhibition at 0.1 µM (SRC) was -18.3%. For the same compound, the inhibition at 1 µM (SRC) was -2.2%, the inhibition at 0.1 µM (NEK1) was -8.9% and the inhibition at 1 µM (NEK1) was -1.9%. For the same compound, the inhibition at 0.1 µM (SMG1) was -2.5%, the inhibition at 1 µM (SMG1) was 13% and the inhibition at 0.1 µM (TBK1) was 7.3%. It also gave an inhibition at 1 µM (TBK1) of 16.4%, a percent inhibition (TAO1, TAO3; 0.1 μM) of −6.5% and a percent inhibition (TAO1, TAO3; 1 μM) of 5.9%. For the same compound, the inhibition at 0.1 µM (NEK7) was 2.2%, the inhibition at 1 µM (NEK7) was 7.3% and the inhibition at 0.1 µM (DNAPK) was -19.3%. For the same compound, the inhibition at 1 µM (DNAPK) was 14.7%, the inhibition at 0.1 µM (smMLCK) was -21.6% and the inhibition at 1 µM (smMLCK) was 16.2%. For the same compound, the inhibition at 0.1 µM (RSK2 domain2) was -10%, the inhibition at 1 µM (RSK2 domain2) was 21.4% and the inhibition at 0.1 µM (MAP3K5) was 3.3%. It also gave an inhibition at 1 µM (MAP3K5) of 21.3%, an inhibition at 0.1 µM (IKKb) of -15.5% and an inhibition at 1 µM (IKKb) of -15.8%. It also gave an inhibition at 0.1 µM (TLK1) of -4.6%, an inhibition at 1 µM (TLK1) of -3.7% and an inhibition at 0.1 µM (MST3) of 0.1%. The inhibition at 1 µM (MST3) was 46.2%, the inhibition at 0.1 µM (RSK1 domain1) was -26.8% and the inhibition at 1 µM (RSK1 domain1) was 32.9%. It also gave an inhibition at 0.1 µM (FRAP) of -20.7%, an inhibition at 1 µM (FRAP) of 9.8% and an inhibition at 0.1 µM (TLK2) of -8.4%. The inhibition at 1 µM (TLK2) was -9.4%, the inhibition at 0.1 µM (NDR1) was -4.4% and the inhibition at 1 µM (NDR1) was 1.7%. It also gave an inhibition at 0.1 µM (SYK) of -8.3%, an inhibition at 1 µM (SYK) of 7.2% and an inhibition at 0.1 µM (MAP3K3) of -0.5%. For the same compound, the inhibition at 1 µM (MAP3K3) was 7.4%, the inhibition at 0.1 µM (MAP2K4) was -20.5% and the inhibition at 1 µM (MAP2K4) was 19.2%. For the same compound, the inhibition at 0.1 µM (MARK2) was -4.7%, the inhibition at 1 µM (MARK2) was 27.3% and the inhibition at 0.1 µM (MLK3) was -14.1%. The inhibition at 1 µM (MLK3) was 19.9%, the inhibition at 0.1 µM (CHK2) was -6.8% and the inhibition at 1 µM (CHK2) was 2.2%. For the same compound, the inhibition at 0.1 µM (PAN3) was -0.2%, the inhibition at 1 µM (PAN3) was 15.1% and the inhibition at 0.1 µM (GPRK6) was -3.9%. It also gave an inhibition at 1 µM (GPRK6) of 10.9%, an inhibition at 0.1 µM (PRPK) of 3% and an inhibition at 1 µM (PRPK) of -3.7%. It also gave an inhibition at 0.1 µM (RSKL1 domain1) of 1.1%, an inhibition at 1 µM (RSKL1 domain1) of -1.8% and an inhibition at 0.1 µM (FES) of -9.2%. For the same compound, the inhibition at 1 µM (FES) was 6.9%.
`Cn1cc(-c2c[nH]c3ncnc(N4CCOCC4)c23)cc1C#N` [Example 217, 1-methyl-4-[4-(morpholin-4-yl)-7H-pyrrolo[2,3-d]pyrimidin-5-yl]-1H-pyrrole-2-carbonitrile] showed a percent inhibition (Wnk1, Wnk2, Wnk4; 0.1 μM) of 2.2%, a percent inhibition (Wnk1, Wnk2, Wnk4; 1 μM) of −5.4% and an inhibition at 0.1 µM (RIPK3; RIPK3, 0.1 μM) of -7.3%. For the same compound, the inhibition at 1 µM (RIPK3; RIPK3, 1 μM) was -9.1%, the inhibition at 0.1 µM (IRAK4; IRAK4, 0.1 μM) was 14.7% and the inhibition at 1 µM (IRAK4; IRAK4, 1 μM) was 34.5%. The inhibition at 0.1 µM (ILK; ILK, 0.1 μM) was -6.3%, the inhibition at 1 µM (ILK; ILK, 1 μM) was -3.8% and the inhibition at 0.1 µM (SRC; SRC, 0.1 μM) was -1%. For the same compound, the inhibition at 1 µM (SRC; SRC, 1 μM) was 1.1%, the inhibition at 0.1 µM (NEK1; NEK1, 0.1 μM) was 4.8% and the inhibition at 1 µM (NEK1; NEK1, 1 μM) was -5.1%. The inhibition at 0.1 µM (SMG1; SMG1, 0.1 μM) was 1.5%, the inhibition at 1 µM (SMG1; SMG1, 1 μM) was -6.1% and the inhibition at 0.1 µM (TBK1; TBK1, 0.1 μM) was 1.9%. For the same compound, the inhibition at 1 µM (TBK1; TBK1, 1 μM) was 0.1%, the percent inhibition (TAO1, TAO3; 0.1 μM) was −9.7% and the percent inhibition (TAO1, TAO3; 1 μM) was −16.5%. For the same compound, the inhibition at 0.1 µM (NEK7; NEK7, 0.1 μM) was -9%, the inhibition at 1 µM (NEK7; NEK7, 1 μM) was -2.3% and the inhibition at 0.1 µM (DNAPK; DNAPK, 0.1 μM) was 31%. It also gave an inhibition at 1 µM (DNAPK; DNAPK, 1 μM) of 31.5%, an inhibition at 0.1 µM (smMLCK; smMLCK, 0.1 μM) of 1.7% and an inhibition at 1 µM (smMLCK; smMLCK, 1 μM) of 3.5%. It also gave an inhibition at 0.1 µM (RSK2 domain2; RSK2 domain2, 0.1 μM) of -4.1%, an inhibition at 1 µM (RSK2 domain2; RSK2 domain2, 1 μM) of 2.8% and an inhibition at 0.1 µM (MAP3K5; MAP3K5, 0.1 μM) of 7%. The inhibition at 1 µM (MAP3K5; MAP3K5, 1 μM) was 44.5%, the inhibition at 0.1 µM (IKKb; IKKb, 0.1 μM) was 7.1% and the inhibition at 1 µM (IKKb; IKKb, 1 μM) was 6.5%. The inhibition at 0.1 µM (TLK1; TLK1, 0.1 μM) was 7.6%, the inhibition at 1 µM (TLK1; TLK1, 1 μM) was 16.7% and the inhibition at 0.1 µM (MST3; MST3, 0.1 μM) was 6.7%. The inhibition at 1 µM (MST3; MST3, 1 μM) was 10.9%, the inhibition at 0.1 µM (RSK1 domain1; RSK1 domain1, 0.1 μM) was 27.6% and the inhibition at 1 µM (RSK1 domain1; RSK1 domain1, 1 μM) was 45.6%. The inhibition at 0.1 µM (FRAP; FRAP, 0.1 μM) was 0.7%, the inhibition at 1 µM (FRAP; FRAP, 1 μM) was 0.9% and the inhibition at 0.1 µM (TLK2; TLK2, 0.1 μM) was 11.1%. For the same compound, the inhibition at 1 µM (TLK2; TLK2, 1 μM) was 16%, the inhibition at 0.1 µM (NDR1; NDR1, 0.1 μM) was 16.3% and the inhibition at 1 µM (NDR1; NDR1, 1 μM) was -17.7%. It also gave an inhibition at 0.1 µM (SYK; SYK, 0.1 μM) of -2%, an inhibition at 1 µM (SYK; SYK, 1 μM) of -5.1% and an inhibition at 0.1 µM (MAP3K3; MAP3K3, 0.1 μM) of -3.4%. The inhibition at 1 µM (MAP3K3; MAP3K3, 1 μM) was -6.7%, the inhibition at 0.1 µM (MAP2K4; MAP2K4, 0.1 μM) was 2.3% and the inhibition at 1 µM (MAP2K4; MAP2K4, 1 μM) was 1.6%. The inhibition at 0.1 µM (MARK2; MARK2, 0.1 μM) was -5%, the inhibition at 1 µM (MARK2; MARK2, 1 μM) was 13.1% and the inhibition at 0.1 µM (MLK3; MLK3, 0.1 μM) was -13.5%. It also gave an inhibition at 1 µM (MLK3; MLK3, 1 μM) of -9.6%, an inhibition at 0.1 µM (CHK2; CHK2, 0.1 μM) of 8.6% and an inhibition at 1 µM (CHK2; CHK2, 1 μM) of 6.4%. The inhibition at 0.1 µM (PAN3; PAN3, 0.1 μM) was 5.6%, the inhibition at 1 µM (PAN3; PAN3, 1 μM) was -7.5% and the inhibition at 0.1 µM (GPRK6; GPRK6, 0.1 μM) was -0.8%. The inhibition at 1 µM (GPRK6; GPRK6, 1 μM) was 3.6%, the inhibition at 0.1 µM (PRPK) was 2.6% and the inhibition at 1 µM (PRPK) was 12.5%. The inhibition at 0.1 µM (RSKL1 domain1; RSKL1 domain1, 0.1 μM) was -15.9%, the inhibition at 1 µM (RSKL1 domain1; RSKL1 domain1, 1 μM) was -30.6% and the inhibition at 0.1 µM (FES; FES, 0.1 μM) was 8.4%. For the same compound, the inhibition at 1 µM (FES; FES, 1 μM) was 6.2%.
